pIC50: −log10 of the molar value.
Key:
[1] = system: Rattus norvegicus; assay: Antiulcer activity against ulceration induced albino Wistar rat assessed as ulcerogenic index pretreated daily at 25 mg/kg for 4 days followed by 24 hrs fasting prior to pylorus ligation measured after 4 hrs; format: functional; conditions: time 124 hrs
[2] = system: Rattus norvegicus; assay: Anti-inflammatory activity against Cotton pellets induced granuloma in Albino rat at 20 mg/kg, po administered for 7 days measured on day 8 by measuring pellet weight relative to control; format: functional; conditions: time 8 day
[3] = system: Rattus norvegicus; assay: Acute ulcerogenic activity in 18 hrs fasted Wistar rat at 60 mg/kg, po treated for 6 hrs relative to control; format: functional
[4] = system: Rattus norvegicus; assay: Anti-inflammatory activity against Carrageenan-induced paw edema in Wistar rat at 5 mg/kg, po pretreated for 30 mins followed by carrageenan addition after 4 hrs by Plethysmometric analysis relative to control; format: functional; conditions: time 4.5 hrs
[5] = Acute toxicity in PO dosed Wistar albino rat measured for 14 days; format: organism-based; conditions: in vivo, time 14 day
[6] = system: Rattus norvegicus; assay: Anti-inflammatory activity against carrageenan-induced paw edema in po dosed Wistar rat pretreated for 1 hrs followed by carrageenan addition measured after 3 hrs; format: functional; conditions: time 4 hrs
[7] = system: RAW264.7; assay: Anti-inflammatory activity against LPS induced mouse RAW264.7 cells assessed as suppression of TNFalpha cytokine level at 20 uM incubated for 24 hrs by ELISA assay relative to control; format: functional
[8] = system: Rattus norvegicus; assay: Anti-inflammatory activity against carrageenan-induced hind paw edema in rat at 20 mg/kg, PO measured after 5 hrs relative to control; format: functional
[9] = system: Rattus norvegicus; assay: Anti-inflammatory activity against carrageenan-induced paw edema in Wistar albino rat model assessed as inhibition of paw edema at 20 mg/kg, PO relative to control; format: functional
[10] = species: Homo sapiens; assay: Inhibition of proteinase (unknown origin) at 100 ug/ml using casein as substrate preincubated for 5 mins followed by addition of substrate for 20 mins relative to control; conditions: dose 100.0 µg/ml
[11] = system: Erythrocyte; assay: Anti-inflammatory against heat induced human red blood cells assessed as inhibition of heat induced hemolysis by measuring membrane stabilization for at 100 ug/ml incubated for 30 mins relative to control; format: functional; conditions: 0.5 h
[12] = system: Rattus norvegicus; assay: Acute anti-inflammatory activity against carrageenan induced paw edema in Albino rat at 20 mg/kg, po pretreated for 30 mins followed by carrageenan addition measured every hour for 3 hrs by plethysmography method relative to control; format: functional; conditions: time 3.5 hrs
[13] = system: Mus musculus; assay: Anti-inflammatory activity against Carrageenan-induced paw edema in Swiss albino mouse assessed as change in paw volume at 10 mg/kg, PO measured after 6 hrs by plethysmometric analysis relative to control; format: functional
[14] = system: Mus musculus; assay: Analgesic activity in hot plate induced thermal pain Swiss albino mouse model assessed as change in latency at 10 mg/kg, po measured at 1 to 2 hrs relative to control; format: functional; conditions: time 1-2 hrs
[15] = system: Rattus norvegicus; assay: Anti-inflammatory activity against carrageenan-induced paw edema in Wistar albino rat at 10 mg/kg, po pretreated for 1 hr followed by carrageenan addition measured after 6 hrs by plethysmometer relative to control; format: functional; conditions: time 7 hrs
[16] = system: Mus musculus; assay: Analgesic activity in albino […] mouse assessed as increase in reaction on paw licking at 100 mg/kg, po pretreated for 1 hrs followed by hot plate treatment measured after 90 mins by analgesiometer based analysis relative to control; format: functional; conditions: time 2.5 hrs
[17] = system: Rattus norvegicus; assay: Anti-inflammatory activity against carrageenan-induced paw edema in Sprague-Dawley rat at 30 mg/kg, IP pretreated for 30 mins followed by carrageenan addition measured after 4 hrs relative to control; format: functional; conditions: time 4.5 hrs
[18] = system: RAW264.7; assay: Anti-inflammatory against LPS induced mouse RAW 264.7 cells assessed as inhibition of IL-6 measured for 24 hrs by ELISA analysis; format: functional, cell-based; conditions: RAW264.7, 24 h
[19] = system: RAW264.7; assay: Anti-inflammatory against LPS induced mouse RAW 264.7 cells assessed as inhibition of NO measured for 24 hrs by ELISA analysis; format: functional, cell-based; conditions: RAW264.7, 24 h
[20] = system: RAW264.7; assay: Anti-inflammatory against LPS induced mouse RAW 264.7 cells assessed as inhibition of IL-1beta measured for 24 hrs by ELISA analysis; format: functional, cell-based; conditions: RAW264.7, 24 h
[21] = system: Rattus norvegicus; assay: Anti-inflammatory activity against carrageenan-induced paw edema in Wistar rat at 20 mg/kg, po assessed as paw edema volume measured after 4 hrs by plethysmometric analysis relative to control; format: functional
[22] = system: Rattus norvegicus; assay: Anti-inflammatory activity against formalin-induced foot paw edema in Wistar rat assessed as oedema inhibition at 10 mg/kg,po measured after 3 hrs by plethysmometric analysis relative to control; format: functional
[23] = system: Rattus norvegicus; assay: Anti-inflammatory activity against formalin-induced foot paw edema in Wistar rat assessed as oedema inhibition at 10 mg/kg,po measured after 1 hrs by plethysmometric analysis relative to control; format: functional
[24] = system: Rattus norvegicus; assay: Anti-inflammatory activity against formalin-induced foot paw edema in Wistar rat assessed as oedema inhibition at 10 mg/kg,po measured after 6 hrs by plethysmometric analysis relative to control; format: functional

`O=C([O-])Cc1ccccc1Nc1c(Cl)cccc1Cl.[Na+]` [DICLOFENAC SODIUM] showed an Activity [1] of 4.67, an Activity [2] of 60.2% and an Activity [3] of 64.7%.

`COc1ccc(-c2cc(-c3ccccc3)nn2CC(=O)Nc2ccc(S(N)(=O)=O)cc2)cc1` showed an inhibition in vivo at 5 mg/kg [4] of 81%.

Work on `O=C(Cc1cn(-c2ccccc2)nc1O)Nc1ccccc1-c1cc(-c2ccc(Br)cc2)n(-c2ccccc2)n1` yielded an LD50 at 336 h [5] of 2000 mg/kg.

`Nc1cc(-c2ccccc2)nn1C(=O)c1csc(-c2ccccc2)n1` gave an Activity [1] of 0.44.

For `O=C(O)CC(O)(c1ccccc1)c1ccccc1`, the ED50 [6] was 15 µmol/kg.

For `O=C1/C(=C\c2ccc(F)cc2)C=C(c2ccc(F)cc2)N1Cc1ccc(F)cc1`, the Activity [7] was 65.03% and the inhibition in vivo at 20 mg/kg [8] was 76.2%.

With `COc1cc(Cc2nc3cc(NC(=O)c4ccc(Cl)cc4)ccc3o2)cc(OC)c1OC` the inhibition in vivo at 20 mg/kg [9] was 79.5%.

`O=Cc1cc2cccc(-c3nc4ccccc4o3)c2nc1Cl` gave an inhibition [10] of 80.2% and an inhibition at 100 µg/mL [11] of 74.3%.

`O=C(CCN1CCN(c2cccc(Cl)c2Cl)CC1)Nc1ccc2oc(Cc3ccc(Cl)cc3)nc2c1` gave an Activity [12] of 77.6% and an Activity [2] of 39.3%.

With `COc1ccc(/C=C/C(=O)c2ccc(F)cc2O)cc1` the Activity [13] was 54%.

Work on `CN1C(C(=O)Nc2ccccn2)=C(O)c2ccccc2S1(=O)=O` [PIROXICAM] yielded an inhibition in vivo at 10 mg/kg [14] of 75%.

For `CC(C)Cc1ccc(C(C)C(=O)O)cc1` (centres undefined) [IBUPROFEN], the inhibition in vivo at 20 mg/kg [9] was 65.9%, the inhibition in vivo at 10 mg/kg [15] was 94.7% and the ED50 [6] was 15 µmol/kg. The Activity [3] was 69.5%.

Work on `O=C(CCc1nnc(-c2ccc(O)cc2)o1)N/N=C1\C(=O)Nc2ccccc21` yielded an Activity [16] of 84.11%.

In the case of `Cc1ccc(-c2nnc(CCC(=O)N/N=C3\C(=O)Nc4ccccc43)o2)cc1`, the Activity [16] was 83.17%.

With `CCOC(=O)CSc1nnc(Cc2ccccc2)n1C1CCCCC1` the inhibition in vivo at 30 mg/kg [17] was 62.5%.

For `CC(C(=O)O)C(O)(c1ccccc1)c1ccccc1` (centres undefined), the ED50 [6] was 15 µmol/kg.

With `CN(C)c1cccc2c(S(=O)(=O)Oc3cccc4oc(=O)[nH]c34)cccc12` the pIC50 [18] was 5.06, the pIC50 [19] was 4.75 and the pIC50 [20] was 4.70.

`COc1ccc2c(c1)c(CC(=O)O)c(C)n2C(=O)c1ccc(Cl)cc1` [INDOMETHACIN] showed an Activity [16] of 85.84%, an Activity [7] of 68.84% and an inhibition in vivo at 20 mg/kg [21] of 81.9%. It also gave an inhibition in vivo at 20 mg/kg [8] of 81%.

Compound `C/C(=N/Nc1ccc(C(=O)O)cc1)c1cccc(N2C(=O)c3ccccc3C2=O)c1` has an inhibition in vivo at 10 mg/kg [22] of 22.2%, an inhibition in vivo at 10 mg/kg [23] of 29.2% and an inhibition in vivo at 10 mg/kg [24] of 29.2%.

— ChEMBL document CHEMBL5096183, “Contemporary advances of cyclic molecules proposed for inflammation” (Eur J Med Chem, 2021)
